Measurements published in patent publication US20190125888A1, “TARGETED CONJUGATES AND PARTICLES AND FORMULATIONS THEREOF” (priority 2015, published 2019).
Like-named read-outs stand apart in the source and are kept apart here.

How the values were obtained:
Half-life in rat plasma = format: in vitro ADME; conditions: read-out: rat plasma t½ (converted)
Description: (§1) Half-life (t1/2) of maytansinoid conjugates were measured in rat plasma and rat liver microsomes (LM). PK values of maytansinoid conjugates in NCI-H69 SCLC (small cell lung cancer) tumor cells were measured.

[1] = Ligand charge of maytansinoid conjugates; format: physicochemical
[2] = Chrom LogP of maytansinoid conjugates; format: physicochemical
human SSTR2 = human SSTR2 (Homo sapiens, UniProt P30874); assay: Radioligand-receptor binding assay, [125I] somatostatin, membranes from SSTR2 expressing CHO-K1 cells
How it was run: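 CHO-K1 SSTR2 membranes incubated 4 h with 0.03 nM [125I] somatostatin and conjugates in a 10-point, 6-fold series from 10 uM. Bound radioligand measured after filtration and washing; IC50 by non-linear least-squares regression.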

[3] = test system: NCI-H69 SCLC (small cell lung cancer) tumor cells; assay: H69 tumor PK; format: in vivo
Description: as §1

human NCI-H69 SCLC = assay: H69 xenograft efficacy study, tumor growth inhibition; format: in vivo, mice; conditions: for TGI % Day 11 / TGI % Day 14 / TGI % Day 18 / TGI % Day 21 / TGI % Day 25: 0.7 mg/kg once weekly for two doses
Description: Applicants assessed the activity of maytansinoid conjugates in vivo. In these experiments, the ability of conjugates to affect the growth of human NCI-H69 SCLC was tested. For the in vivo study, 8 week old female NCR nude mice were inoculated subcutaneously into the right flank with 2 million cells in 1:1 RPMI 1640 (Invitrogen, Carlsbad, Calif.)/Matrigel® (BD Biosciences, San Jose, Calif.). Tumor measurements were taken twice weekly, using vernier calipers. Tumor volume was calculated using the formula: V=0.5×width×width×length.
When tumors approached a volume of 200 mm^3, mice were randomized into four groups of ten animals. Mice were treated with vehicle control (10% propylene glycol in water for injection) and maytansinoid conjugates (10% propylene glycol in water for injection). Final tumor volumes were analyzed using with a one-way analysis of variance and Tukey multiple comparison test.

[4] = Half-life in rat liver microsomes; format: in vitro ADME; conditions: read-out: rat LM t½ (mm)
Description: as §1

phospho-histone H3 = assay: Phospho-histone H3 response in NCI-H69 tumors; format: in vivo, mice
Description: Phospho-histone H3 response in NCI-H69 tumors was measured. […] At 24 hour, adjusted phospho-histone H3 response for Conjugate 6 was about 500 (fluorescence signal) and at 48 hour it was about 2300 (fluorescence signal).

[5] = test system: NCI-H524 (ATCC) human lung cancer cells; format: cell-based
How it was run: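 NCI-H524 cells (5,000/well) exposed to conjugates for 6 hours, washed, then grown a further 66 hours; ten-point threefold dilutions from 20 μM. Proliferation by CellTiter-Glo versus vehicle; IC50 by four-parameter nonlinear regression, measured with and without octreotide competition.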

[6] = Pharmacokinetics study in mouse; conditions: in vivo
Description: Pharmacokinetics studies in mouse were also carried out. Half-life, Cmax and AUC values of Conjugate 6 were show in Table 10.

[7] = 1.3 mg/kg once weekly for two doses
[8] = 2 mg/kg once weekly for two doses
[9] = read-out: H524 IC50 6 h, 6 hours treatment, further 66 hours incubation
[10] = read-out: H524 IC50 with 100 μM octreotide 6 h, with 100 μM octreotide competition, 6 h treatment
[11] = 1.5 mg/kg once weekly for two doses

Chain of human SSTR2 (P30874 whole entry): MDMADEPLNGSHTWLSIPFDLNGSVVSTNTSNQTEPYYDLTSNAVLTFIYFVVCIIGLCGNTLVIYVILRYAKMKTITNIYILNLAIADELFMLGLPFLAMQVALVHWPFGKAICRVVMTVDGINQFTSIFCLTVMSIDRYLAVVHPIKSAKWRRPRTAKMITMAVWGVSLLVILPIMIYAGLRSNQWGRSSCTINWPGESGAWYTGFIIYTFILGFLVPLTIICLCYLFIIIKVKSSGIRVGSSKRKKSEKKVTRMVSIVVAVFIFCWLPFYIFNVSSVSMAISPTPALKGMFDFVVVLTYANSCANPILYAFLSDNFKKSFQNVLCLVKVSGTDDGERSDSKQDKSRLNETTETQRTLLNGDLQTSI

COc1cc2cc(c1Cl)N(C)C(=O)C[C@H](OC(=O)[C@H](C)N(C)C(=O)CCSSC(C)(C)[C@H](NC(=O)[C@@H]1CSSC[C@H](NC(=O)[C@H](N)Cc3ccccc3)C(=O)N[C@@H](Cc3ccc(O)cc3)C(=O)N[C@H](Cc3c[nH]c4ccccc34)C(=O)N[C@@H](CCCCN)C(=O)N[C@@H]([C@@H](C)O)C(=O)N1)C(N)=O)[C@]1(C)O[C@H]1[C@H](C)[C@@H]1C[C@@](O)(NC(=O)O1)[C@H](OC)/C=C/C=C(\C)C2 [Conjugate 6]
half-life (Half-life in rat plasma): 18.2 h | Ligand charge [1]: +2 | chromatographic logP [2]: 2.06 | Ki (human SSTR2): 0.021 nM | H69 tumor PK normalized- uM/umol/kg at 1 mpk in 10% PG [3]: Ca. 0.420 uM/umol/kg | TGI % at day 33 (human NCI-H69 SCLC; 0.7 mg/kg once weekly for three doses, day 33): 31.9% | TGI % Day 11 (human NCI-H69 SCLC): 55% | TGI % Day 14 (human NCI-H69 SCLC): 60% | TGI % Day 18 (human NCI-H69 SCLC): 65% | TGI % Day 21 (human NCI-H69 SCLC): 69% | TGI % Day 25 (human NCI-H69 SCLC): 59% | TGI % Day 13 (human NCI-H69 SCLC; [7]): 69.1% | TGI % Day 17 (human NCI-H69 SCLC; [7]): 75.6% | TGI % Day 20 (human NCI-H69 SCLC; [7]): 76.8% | TGI % Day 24 (human NCI-H69 SCLC; [7]): 72.7% | TGI % Day 30 (human NCI-H69 SCLC; [7]): 72.1% | TGI % Day 13 (human NCI-H69 SCLC; [8]): 93.4% | TGI % Day 17 (human NCI-H69 SCLC; [8]): 96.2% | TGI % Day 20 (human NCI-H69 SCLC; [8]): 98.2% | TGI % Day 24 (human NCI-H69 SCLC; [8]): 99.5% | TGI % Day 30 (human NCI-H69 SCLC; [8]): 99.9% | TGI % at day 22 (human NCI-H69 SCLC; Dose 0.63 × 3 mg/kg, total dose 1.89 mg/kg): 47% | TGI % at day 22 (human NCI-H69 SCLC; Dose 0.65 × 2 mg/kg, total dose 1.3 mg/kg): 69% | TGI % at day 22 (human NCI-H69 SCLC; Dose 1.2 × 2 mg/kg, total dose 2.4 mg/kg): 77% | TGI % at day 22 (human NCI-H69 SCLC; Dose 2.0 × 2 mg/kg, total dose 4.0 mg/kg): 98% | half-life [4]: 2.97 h | adjusted phospho-histone H3 response (phospho-histone H3; at 24 hour): about 500 fluorescence signal | adjusted phospho-histone H3 response (phospho-histone H3; at 48 hour): about 2300 fluorescence signal | IC50 [5, 9]: 13 nM | IC50 [5, 10]: 545 nM | AUC(0-inf) [6]: 4.45 µM·h | Cmax [6]: 3000 nM | half-life ([6]; read-out: t½ (converted)): 2.05 h

COc1cc2cc(c1Cl)N(C)C(=O)C[C@H](OC(=O)[C@H](C)N(C)C(=O)CCSSC(C)(C)[C@H](NC(=O)[C@@H]1CSSC[C@H](NC(=O)[C@@H](Cc3ccccc3)NS(C)(=O)=O)C(=O)N[C@@H](Cc3ccc(O)cc3)C(=O)N[C@H](Cc3c[nH]c4ccccc34)C(=O)N[C@@H](CCCCN)C(=O)N[C@@H]([C@@H](C)O)C(=O)N1)C(N)=O)[C@]1(C)O[C@H]1[C@H](C)[C@@H]1C[C@@](O)(NC(=O)O1)[C@H](OC)/C=C/C=C(\C)C2 [Conjugate 10]
Ligand charge [1]: +1 | chromatographic logP [2]: 2.66 | Ki (human SSTR2): 0.035 nM | H69 tumor PK normalized- uM/umol/kg at 1 mpk in 10% PG [3]: 0.546 uM/umol/kg | TGI % Day 11 (human NCI-H69 SCLC): 48% | TGI % Day 14 (human NCI-H69 SCLC): 59% | TGI % Day 18 (human NCI-H69 SCLC): 54% | TGI % Day 21 (human NCI-H69 SCLC): 53% | TGI % Day 25 (human NCI-H69 SCLC): 42% | TGI % Day 13 (human NCI-H69 SCLC; [11]): 92.2% | TGI % Day 17 (human NCI-H69 SCLC; [11]): 95.6% | TGI % Day 20 (human NCI-H69 SCLC; [11]): 97.8% | TGI % Day 24 (human NCI-H69 SCLC; [11]): 99.5% | TGI % Day 30 (human NCI-H69 SCLC; [11]): 99.6% | TGI % at day 22 (human NCI-H69 SCLC; Dose 0.60 × 2 mg/kg, total dose 1.20 mg/kg): 53% | TGI % at day 22 (human NCI-H69 SCLC; Dose 1.54 × 2 mg/kg, total dose 3.08 mg/kg): 98% | IC50 [5, 9]: 3.3 nM | IC50 [5, 10]: 246 nM
